In patent US8501911B2, “Methods of reducing inflammation and mucus hypersecretion” (Biomarck Pharmaceuticals, Ltd, priority 1999, dated 2013):
Values joined by “and” are separate entries in the source; they are usually repeats but may differ in a detail not shown here. Identical values can stand only once. Like-named read-outs stand apart in the source and are kept apart here. Residues, ends and D or L forms follow the SMILES beside them. *: point of attachment. Myristoyl = CCCCCCCCCCCCCC(=O)*

What was measured:
[1] = system: LPS-primed canine neutrophils; experiment: MPO secretion from LPS-primed canine neutrophils; type: cell-based
Description: Results-I-11 and Results-I-12 show MPO secretion from LPS-primed human neutrophils as a model for humans, and Results-I-13, Results-I-14, and Results-I-15 show MPO secretion from LPS-primed canine neutrophils as a model for canines. In all of these experiments, isolated neutrophils were stimulated with LPS at a concentration of 1×10^−6 M for 10 minutes at 37° C. prior to adding the stimuli. The LPS primes the cells so they can respond to a secretagogue.
In another comparative experiment, when absorbance was monitored at 450 nm while observing MPO secretion from LPS-primed canine neutrophils, Results-I-13 were obtained as follows.
In another comparative experiment, when absorbance was monitored at 450 nm while observing MPO secretion from LPS-primed canine neutrophils, Results-I-14 were obtained as follows.
In another comparative experiment, when absorbance was monitored at 450 nm while observing MPO secretion from LPS-primed canine neutrophils, Results-I-15 were obtained as follows.
Isolation of PMNs from canine blood—The steps involved in isolating PMN include collecting 10 ml ACD anticoagulated blood; then layering 5 ml on 3.5 ml PMN isolation media while ensuring that the PMN isolation media (IM) was at room temperature (RI). Next, the blood was centrifuged at room temperature for 30′, 550×g at 1700 RPMs. The low lower white band was transferred into a 15 ml conical centrifuge tube (CCFT). Next, 2V HESS with 10% fetal bovine serum […] was added and centrifuged at room temperature for 10′, 400×g at 1400 RPMs. The pellet was then resuspended in 5 ml 1-1ESS with PBS. The cell suspension was added to 50 ml CCFT containing 20 ml of ice cold 0.88% NH4 Cland inverted two to three times. […]
MPO Colorimetric Enzyme Assay—Samples were assayed for MPO activity in 96 well round bottom microtiter plates using a sandwich ELISA kit (R & D Systems, Minneapolis, Minn.). […] After mixing, the assay mixture was incubated at room temperature for 5 minutes, and MPO enzyme activity determined spectrophotometrically at […]. […]

canine neutrophils = experiment: MPO secretion from isolated canine neutrophils stimulated with PMA+8-Br-cGMP; type: cell-based
Description: Isolation of PMNs from canine blood—The steps involved in isolating PMN include collecting 10 ml ACD anticoagulated blood; then layering 5 ml on 3.5 ml PMN isolation media while ensuring that the PMN isolation media (IM) was at room temperature (RI). Next, the blood was centrifuged at room temperature for 30′, 550×g at 1700 RPMs. The low lower white band was transferred into a 15 ml conical centrifuge tube (CCFT). Next, 2V HESS with 10% fetal bovine serum […] was added and centrifuged at room temperature for 10′, 400×g at 1400 RPMs. The pellet was then resuspended in 5 ml 1-1ESS with PBS. The cell suspension was added to 50 ml CCFT containing 20 ml of ice cold 0.88% NH4 Cland inverted two to three times. The resulting product was centrifuged for 10′, 800×g at 2000 RPMs, then aspirated and resuspended in ml HBSS with FBS. The prep was examined by counting and cytospin and preferably for whole blood, the cell number should be between 10^9-10^11 cells and for PMNs, cell number should be between 2-4×10^7 cells. See generally, Wang et al., J. Immunol., “Neutrophil-induced changes in the biomechanical properties of endothelial cells: roles of ICAM-1 and reactive oxygen species,” 6487-94 (2000).
MPO Colorimetric Enzyme Assay—Samples were assayed for MPO activity in 96 well round bottom microtiter plates using a sandwich ELISA kit (R & D Systems, Minneapolis, Minn.). Briefly, 20 microliters of sample is mixed with 180 microliters of substrate mixture containing 33 mM potassium phosphate, pH 6.0, […], 0.11 mM hydrogen peroxide, and 0.36 mM O-Diannisidine Dihydrochloride in an individual microtiter well. The final concentrations in the assay mixture are: 30 mM potassium phosphate, pH 6.0, 0.05% Triton X-100, 0.1 mM hydrogen peroxide, and 0.32 mM O-Diannisidine Dihydrochloride. […] Samples were assayed in duplicate.

[2] = system: LPS-induced lung inflammation; type: in vivo, mouse; conditions: for Hb / MPO / LDH / Total Protein: BAL fluid; for % Inhibition of MPO: mouse, in vivo; for % Inhibition of neutrophil migration: relative to PBS/LPS treatment
Description: Thus, six to seven week old CD1 female mice weighing 15-20 grams were obtained from Charles River laboratories and housed in groups of 5 mice per cage. The animals received standard rodent diet and filtered water ad libitum. The animals were housed under NIH prescribed guidelines at standard temperature (64° to 79° F.) and relative humidity of 30 to 70%.
Four treatment groups of mice, with 5 animals in each group, were treated either with PBS followed by PBS, with PBS followed by LPS, with (myristoylated) MANS peptide followed by LPS, or with peptide of SEQ ID NO: 15 (MA-GAQFSKTAAK) followed by LPS.
Intranasal peptide instillation pre-treatment: A peptide of the invention to be evaluated in vivo for its ability to inhibit or reduce LPS-induced lung inflammation was dissolved in PBS at a concentration of 1 mM. Animals, anesthetized with 0.8% isofluorane by inhalation, were pretreated with 2×10 μl intranasal bolus of the peptide solution into one nostril 30 minutes prior to subsequent instillation with LPS.
Intranasal LPS instillation: Lipopolysaccharide (LPS) Endotoxin (Escherichia coli Serotype 011:B4 derived endotoxin; Sigma, St Louis, Mo.; see Sigma product information sheet L4130 titled Lipopolysaccharides from Escherichia coli 011:B4) was dissolved into phosphate buffered saline (PBS) at 2,500 μg/mL. To expose animals to endotoxin, a 10 μL intranasal bolus of 2,500 μg/ml endotoxin solution was administered to animals which had been anesthetized with 0.8% isofluorane by inhalation. The 10 μL bolus was applied into one nostril. Animals were monitored for labored breathing, lethargy, and decreased water/food intake following the endotoxin instillations.
Bronchoalveolar Lavage (BAL): Six hours after the last instillation, the animals were anesthetized (90 mg/kg Nembutal) and sacrificed by exsanguination. The lung was serially lavaged 2 times with 1.0 mL aliquots of PBS. The collected BAL fluid was centrifuged to remove the cells for subsequent counting and differential analysis. Recovered lavage fluid was used for analysis of total protein, myeloperoxidase (MPO), LDH, and hemoglobin.
Analysis: Aliquots of the BAL fluid were used immediately to assay for the levels of LDH, total protein, or hemoglobin (Hb) using the COBAS Fara analyzer (COBAS FARA II automated analyzer; Roche Diagnostic Systems Inc., Montclair, N.J.). An aliquot of BAL fluid was frozen at −80° C. for subsequent quantitation of myeloperoxidase (MPO) with a mouse-specific ELISA assay (Cell Sciences, Inc., Canton, Mass.). BAL data were analyzed by standard techniques to examine differences between the control and treatment groups.

[3] = peptide 1 μM + 100 nM PMA+10 μM 8-Br-cGMP, unstimulated control 0.10
[4] = peptide 10 μM + 100 nM PMA+10 μM 8-Br-cGMP

Nc1nc2c(nc(Br)n2[C@@H]2O[C@@H]3COP(=O)(O)O[C@H]3[C@H]2O)c(=O)[nH]1 [8-Br-cGMP]
Absorbance reading at 450 nm (MPO secretion) ([1]; 8-Br-cGMP 1 micromolar alone): approximately 0.078
Absorbance reading at 450 nm (MPO secretion) ([1]; 8-Br-cGMP 10 micromolar alone): approximately 0.0835

CCCCCCCCCCCCCC(=O)NCC(=O)N[C@@H](C)C(=O)N[C@@H](CCC(N)=O)C(=O)N[C@@H](Cc1ccccc1)C(=O)N[C@@H](CO)C(=O)N[C@@H](CCCCN)C(=O)N[C@H](C(=O)N[C@@H](C)C(=O)N[C@@H](C)C(=O)N[C@@H](CCCCN)C(=O)NCC(=O)N[C@@H](CCC(=O)O)C(=O)N[C@@H](C)C(=O)N[C@@H](C)C(=O)N[C@@H](C)C(=O)N[C@@H](CCC(=O)O)C(=O)N[C@@H](CCCNC(=N)N)C(=O)N1CCC[C@H]1C(=O)NCC(=O)N[C@@H](CCC(=O)O)C(=O)N[C@@H](C)C(=O)N[C@@H](C)C(=O)N[C@H](C(=O)N[C@@H](C)C(=O)O)C(C)C)[C@@H](C)O [MANS peptide] (Myristoyl-GAQFSKTAAKGEAAAERPGEAAVA-OH; C-terminus assumed)
Absorbance at 450 nm (MPO secretion) (canine neutrophils; [3]): 0.25
Absorbance at 450 nm (MPO secretion) (canine neutrophils; [4]): 0.09
Total cells counted ([2]; BAL 6 h after LPS, intranasal 2×10 μl of 1 mM peptide 30 min before LPS, Table 3 (PBS/LPS 264,200)): 208,457
Hb ([2]; Table 3 (PBS/LPS 0.19)): 0.05 g/dL
MPO ([2]; Table 3 (PBS/LPS 28.98)): 9.49 ng/mL
LDH ([2]; Table 3 (PBS/LPS 60.40)): 68.57 units/L
Total Protein ([2]; Table 3 (PBS/LPS 272.40)): 175.00 µg/mL
% Neutrophils of total cells ([2]; Table 3 (PBS/LPS 41.7)): 30.9%
Total neutrophils counted ([2]; Table 3 (PBS/LPS 110,061)): 64,481
% Inhibition of MPO [2]: 67.2%
% Inhibition of neutrophil migration [2]: 41.4%

CCCCCCCCCCCCCC(=O)O[C@@H]1[C@@H](C)[C@@]2(O)[C@@H](C=C(CO)C[C@]3(O)C(=O)C(C)=C[C@@H]23)[C@@H]2C(C)(C)[C@]12OC(C)=O [PMA, phorbol 12-myristate 13-acetate]
Absorbance reading at 450 nm (MPO secretion) ([1]; 100 nM PMA alone): 0.078 and 0.0825

CCCCCCCCCCCCCC(=O)NCC(=O)N[C@H](C(=O)N[C@@H](C)C(=O)N1CCC[C@H]1C(=O)N[C@@H](C)C(=O)N[C@@H](C)C(=O)N[C@@H](CCC(=O)O)C(=O)NCC(=O)N[C@@H](C)C(=O)NCC(=O)N[C@@H](C)C(=O)N[C@@H](CCC(=O)O)C(=O)N[C@H](C(=O)N[C@@H](CCCCN)C(=O)N[C@@H](CCCNC(=N)N)C(=O)N[C@@H](C)C(=O)N[C@@H](CO)C(=O)N[C@@H](C)C(=O)N[C@@H](CCC(=O)O)C(=O)N[C@@H](C)C(=O)N[C@@H](CCCCN)C(=O)N[C@@H](CCC(N)=O)C(=O)N[C@@H](C)C(=O)N[C@@H](Cc1ccccc1)C(=O)O)C(C)C)[C@@H](C)O [RNS peptide, reference compound] (Myristoyl-GTAPAAEGAGAEVKRASAEAKQAF-OH; C-terminus assumed)
Absorbance at 450 nm (MPO secretion) (canine neutrophils; [3]): 0.32
Absorbance at 450 nm (MPO secretion) (canine neutrophils; [4]): 0.30

CCCCCCCCCCCCCC(=O)NCC(=O)N[C@@H](C)C(=O)N[C@@H](CCC(N)=O)C(=O)N[C@@H](Cc1ccccc1)C(=O)N[C@@H](CO)C(=O)N[C@@H](CCCCN)C(=O)N[C@H](C(=O)N[C@@H](C)C(=O)N[C@@H](C)C(=O)N[C@@H](CCCCN)C(=O)O)[C@@H](C)O [SEQ ID NO: 15, N-myristoyl-GAQFSKTAAK] (Myristoyl-GAQFSKTAAK-OH; C-terminus assumed)
Total Cell Counts ([2]; BAL 6 h after LPS, intranasal peptide 30 min before LPS, Table 4 (PBS/LPS 422,300)): 628,075
Hb ([2]; Table 4 (PBS/LPS 0.01)): 0.01 g/dL
MPO ([2]; Table 4 (PBS/LPS 17.33)): 0.79 ng/mL
LDH ([2]; Table 4 (PBS/LPS 107.80)): 110.75 units/L
Total Protein ([2]; Table 4 (PBS/LPS 157.40)): 120.25 µg/mL
% Neutrophils of total counts ([2]; Table 4 (PBS/LPS 28.2)): 6.1%
Total Neutrophil counts ([2]; Table 4 (PBS/LPS 119,114)): 38,548
% Inhibition of MPO [2]: 95.4%
% Inhibition of neutrophil migration [2]: 67.6%
